Entries after “also recorded” stand apart in the source; their conditions may differ.

The record followed here is US20250186379A1, “METHODS AND AGENTS FOR DECREASING INSULIN RESISTANCE” (Whitehead Institute for Biomedical Research, priority 2021, published 2025).

Holding throughout (assay type): cell-based, human
Test [1] deals with transcriptional condensates at SMAD7. Description: IR-GFP and SMAD7 intronic RNA FISH colocalization in HepG2 cells. The settings on record: insulin sensitive cells; H2O2; 3 nM insulin 5 min (FIG. 6E).
Test [2] relates to IR condensates. In words: Imaging of IR puncta/condensates (immunofluorescence, IR-GFP) in HepG2 cells. The procedure: For insulin sensitivity and resistance experiments in HepG2 cells, cells were washed with EMEM once and cultured in EMEM for two days. […] To wash out insulin, cells were washed in EMEM seven times, which includes three quick washes, three 5 min washes and a long 20 minute-wash in EMEM at 37° C. In order to investigate insulin response, cells were acutely treated for 5 min with insulin diluted in EMEM supplemented with 1.25% fatty acid-free BSA at 37° C. with 5% CO2 in a humidified incubator.
Metformin (SIGMA, D150959-5G) was resuspended in sterile water to a concentration of 1M and diluted to the reported concentrations in the figures in cell media. […]
HepG2 cells, human liver spheroids and human tissue liver sections were fixed in 4% PFA (VWR, BT140770-10X10) in PBS for 10 min at room temperature. Cells were washed in PBS three times for 5 min and then blocked with 4% IgG-free BSA (VWR, 102643-516) for 15-60 min at room temperature. Cells were then incubated with 1:500 primary antibody in 4% IgG-free BSA at 4° C. overnight. The next day, cells were washed three times with PBS and incubated with 1:500 secondary antibodies in 4% IgG-free BSA at room temperature for 1 hr covered in foil. Cells were washed three times with PBS for 5 min. DNA was stained using 1:5000 Hoechst in PBS for 5 min at RT. Cells were washed three times with PBS for 5 min, stored at 4° C. until imaging. For tissue sections, samples were mounted using Vectashield mounting media (Vector Laboratories, Inc, H-1000). LSM880 microscope with Airyscan detector (ZEISS) was used for image acquisition. Images were then processed using Fiji/ImageJ v2.1.0/153c.
Cells expressing endogenous IR tagged with GFP were grown on 35 mm glass bottom dishes (MatTek Corporation, P35G-1.5-20-C). Cells were imaged at 37° C. using the SM880 Microscope with Airyscan detector with 63× objective and Zen Black software (ZEISS) at the W.M. Keck Microscopy Facility, MIT. Images were then processed using Fiji/ImageJ v2.1.0/153c.
To quantify IR fluorescent signal in puncta, Fiji/ImageJ v2.1.0/153c was used. A circle or an oval was drawn around IR puncta using the oval selection tool and the average fluorescence intensity in the circle/oval (=in the puncta) was determined using the measure tool on Fiji. Background was then subtracted as previously described. To quantify IR fluorescent signal at puncta in various cellular compartments, applicant identified the location of the plasma membrane, cytoplasm, nucleus and RNA FISH spots as follows. The plasma membrane location was identified based on IR immunofluorescence signal, IR-GFP fluorescent signal or CK18 immunofluorescence signal or cell edge. The nucleus was determined by the Hoechst stain for immunofluorescence and tc-PALM experiments or by IR-GFP fluorescence when HepG2 cells expressing IR-GFP were imaged. Given the overlap between Hoechst fluorescence and GFP fluorescence, artefactual green fluorescence coming from the Hoechst confounded IR puncta identification in the nucleus. Since the differences in IR puncta intensity and concentration between cytoplasm and nucleus in HepG2 cells was clear, nuclear outline was easily drawn based on IR-GFP fluorescent signal. Cytoplasm was considered the region between the plasma membrane and the nucleus. RNA FISH spots were identified based on RNA FISH probe fluorescence. Within the FISH spot, IR intensity was measured using the measure tool.
To estimate the number of IR puncta at the plasma membrane, cytoplasm, nucleus or in entire cells, IR puncta were initially counted in a cell slice using Fiji. The number obtained from the cell slice was then multiplied based on the estimated size of the plasma membrane, cytoplasm, nucleus or entire cell, which were obtained considering the length and width of the cell under investigation and the estimated height (˜5 um). […]

The subject of test [3] is IR condensates. Description: tc-PALM of IR cluster/condensate dynamics in HepG2 cells expressing IR-Dendra2. The settings on record: insulin sensitive cells; 20 mM H2O2. The procedure: Widefield Live-cell super-resolution imaging was performed in a photo-activation localization microscopy (PALM) approach using a Nikon Eclipse Ti microscope with a 100× oil immersion objective. The 405 nm and 561 nm laser beams were combined in an external platform with customized power densities to image Dendra2-tagged molecules as previously reported (56). Cells were maintained at 37° C. in a temperature-controlled platform during imaging, and the CO2 level was maintained at 5% by Leibovitz's L-15 Medium with no phenol red (ThermoFisher #21083027). In each imaging cycle, a 2400-frame video stream including a (256 pixel)2 region of interest (ROI) was recorded in 20 Hz acquisition rate with the EM-gain setting as 1000 on an Andor iXon Ultra 897 EMCCD. Each pixel conjugates with a (160 nm)2 area on the sample side. After PALM imaging, the Hoechst-stained nuclei of the same ROI were imaged with stronger 405 nm excitation through DAPI filter.
Detection localization. For each frame of a raw image, Gaussian particles were identified by pixelwise test of hypotheses, whose peak positions were individually fitted at subpixel resolution by maximum-likelihood regression with Gauss-Newton method (91). An additional deflation loop was performed to avoid missing dimmer particles when they were overshadowed by neighboring brighter ones. This multi-particle detection localization procedure has been integrated in a published, open-source MATLAB software called MTT (91).
Spatial clustering. DBSCAN and “manual selection” hybridized approach was applied to group spatially clustered detections via the qSR software (92). Firstly, DBSCAN was performed to generalize a proposal map of spatially clustered detections. Given that IR condensates can be tiny and transient, a “loose” parameter setting was used when performing the DBSCAN (length-scale=120 nm, N_min=4). This parameter combination was determined by comparing the rendered super-resolved reconstructions with the color-coded cluster maps until the clustering results visually make sense for most ROIs. Secondly, individual clusters were manually selected based on the clustering proposal map from last step. Some custom MATLAB code was used to reconstruct the IR distribution of each ROI superposed with the corresponding nuclei image, which was further cross-compared with the corresponding cluster map to determine which region each cluster belongs to (i.e., plasma-membrane, cytoplasm, or nucleus).
Temporal clustering. For each spatial cluster, time-correlated PALM (tc-PALM) analysis was performed along the time axis to extract the truly colocalized, time-correlated multimolecule bursting events (11, 13-14). The lifetime of a burst is simply defined as the timespan from the first to the last detections. More details about the quantitative validations and statistics of tc-PALM analysis can be found in NOTES and FIG. 11.
Widefield, live-cell, super-resolution imaging was performed in a photo-activation localization microscopy (PALM) approach using a Nikon Eclipse Ti microscope with a 100× oil immersion objective. The 405 nm and 561 nm laser beams were combined in an external platform with customized power densities to image Dendra2-tagged molecules as previously reported^24. Cells were cultured on imaging dishes (MatTek, P35G-1.5-20-C) and then imaged while maintaining both the temperature at 37° C. with a temperature-controlled platform and the level of CO2 at 5% with Leibovitz's L-15 Medium with no phenol red (Thermo Fisher, 21083027). During each imaging cycle, a 2400-frame video stream including a (256 pixel)^2 region of interest (ROI) was recorded in 20 Hz acquisition rate with the EM-gain setting as 1000 on an Andor iXon Ultra 897 EMCCD. Each pixel conjugates with a (160 nm)^2 area on the sample side. After PALM imaging, the Hoechst-stained nuclei of the same ROI were imaged using a stronger 405 nm excitation through DAPI filter. […] Following a 5-minute wait, the cells were imaged for 15-20 minutes.

Take `OO` [H2O2, reference compound]: the “IR incorporation in transcriptional condensates” value in test [1] is on record as “caused a reduction in IR incorporation in transcriptional condensates”. Further, the “incorporation of IR into condensates with insulin stimulation” value in test [2] (insulin sensitive cells, 20 mM H2O2 for 30 min) is recorded as “caused a reduction in the incorporation of IR into condensates with insulin stimulation”. For the same compound, the IR condensate dynamics result in test [3] is reported as “caused reduced IR condensate dynamics; also recorded: altered IR condensate dynamics”.

In the case of `CC(=O)N[C@@H](CS)C(=O)O` [NAC, N-acetyl cysteine, reference compound], the “IR condensates defects (signal intensity and lifetime)” value in test [2] (insulin-resistant cells, 1 mM NAC 24 hours (FIGS. 19E-19F, 40B)) is on record as “partially rescued IR condensates defects”.
